Experimental data as given in patent US11098007B2, “Crystal of amino acid salt of 3-hydroxyisovaleric acid and production method thereof” (KYOWA HAKKO BIO CO., LTD., priority 2016, dated 2021).
Where two headings read alike, the source gives them in different places.

Legend:
surgically stressed rats [1] = assay: Effect on body electrolyte: urinary electrolyte after continuous administration in glucose-electrolytes infusion solution (SOLITA-T No. 3)
Procedure: (§1) The solution was continuously administered to surgically stressed rats underwent intestinal tract scratch operation at a normal dose (240 mL/kg/day) for 3 days. On the final day of administration, urine was collected by 24-hour urine collection and measured for the urinary electrolyte concentration.

surgically stressed rats [2] = conditions: rat, in vivo
Procedure: as §1

[3] = HMB final concentration 0.42 weight/volume % in SOLITA-T No. 3, 240 mL/kg/day for 3 days, 24-hour urine of the final day

SMILES | Urinary calcium excretion amount (surgically stressed rats [1]; [3]) | Urinary phosphate excretion amount (surgically stressed rats [1]; [3]) | Electrolyte abnormality (urinary calcium, urinary phosphate) in combined administration with SOLITA-T No. 3 infusion solution (surgically stressed rats [1]; in words) | Electrolyte abnormality (urinary calcium, urinary phosphate) in combined administration with SOLITA-T No. 3 infusion solution (surgically stressed rats [2])
CC(C)(O)CC(=O)O.N=C(N)NCCCC(N)C(=O)O (stereo not shown) [Arginine salt nonhydrate of HMB, arginine salt nonhydrate of HMB] | 0.24 mg/day | 19.1 mg/day | does not induce the above electrolyte abnormality | –
CC(C)(O)CC(=O)[O-].CC(C)(O)CC(=O)[O-].[Ca+2] [Calcium salt hydrate of HMB, calcium salt hydrate of HMB] | – | – | – | induces the increase in urinary calcium and the decrease in urinary phosphate excretion
